Measured values from article PMC10641818, “Development of First-in-Class Dual Sirt2/HDAC6 Inhibitors as Molecular Tools for Dual Inhibition of Tubulin Deacetylation” (Journal of Medicinal Chemistry, 2023).

Columns and labels:
[1] = biological target: T1, Sirt3 (Homo sapiens, UniProt Q9NTG7); experiment: Sirt3 in vitro deacetylation assay (ZMAL); type: biochemical
T1 construct: the respective sirtuin (Sirt1_134–747, Sirt2_56–356, or Sirt3_118–395) was mixed with; made in house; host or cells: Escherichia coli BL21 Star (DE3)
T1 sequence (Q9NTG7 118-395): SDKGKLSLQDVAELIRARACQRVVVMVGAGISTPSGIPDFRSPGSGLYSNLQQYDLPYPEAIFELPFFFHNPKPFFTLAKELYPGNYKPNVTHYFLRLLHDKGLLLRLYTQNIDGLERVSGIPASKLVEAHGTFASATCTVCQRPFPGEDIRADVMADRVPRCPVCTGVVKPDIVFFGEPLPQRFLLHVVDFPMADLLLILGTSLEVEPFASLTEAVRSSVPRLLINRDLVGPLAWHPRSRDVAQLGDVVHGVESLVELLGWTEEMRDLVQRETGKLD

[2] = biological target: T2, HDAC1 (Homo sapiens, UniProt Q13547); experiment: HDAC1 in vitro deacetylation assay (ZMAL); type: biochemical
T2 construct: purchased BPS Bioscience 50051
T2 sequence (Q13547 whole entry): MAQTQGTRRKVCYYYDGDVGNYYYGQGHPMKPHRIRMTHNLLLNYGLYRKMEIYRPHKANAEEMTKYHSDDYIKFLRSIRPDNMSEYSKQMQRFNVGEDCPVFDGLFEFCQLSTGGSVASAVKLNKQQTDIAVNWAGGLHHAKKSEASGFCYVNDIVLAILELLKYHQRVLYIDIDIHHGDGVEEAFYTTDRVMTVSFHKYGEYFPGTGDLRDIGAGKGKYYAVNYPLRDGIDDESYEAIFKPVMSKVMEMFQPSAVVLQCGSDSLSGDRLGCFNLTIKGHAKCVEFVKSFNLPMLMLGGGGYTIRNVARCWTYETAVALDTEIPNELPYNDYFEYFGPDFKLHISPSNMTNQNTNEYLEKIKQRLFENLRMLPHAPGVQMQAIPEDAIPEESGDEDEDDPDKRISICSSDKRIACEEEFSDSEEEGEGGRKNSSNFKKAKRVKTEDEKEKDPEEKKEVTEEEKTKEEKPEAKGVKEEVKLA

[3] = tested on: α-tubulin acetylation; experiment: Immunofluorescence microscopy of α-tubulin acetylation in PC-3M-luc cells; type: cell-based; settings: 20 μM, 5 h
Description: The detection of acetylation levels of α-tubulin by immunofluorescence was performed as previously described.[47] In brief, PC-3M-luc cells (25 000 cells per well) were plated in Ibidi 8-well slides (Ibidi, catalogue no. 80826) and incubated overnight at 37 °C, 5% CO2. Next, cells were treated with 20 μM of inhibitor. After 5 h, the medium was removed and the cells washed with PBS and fixed with 4% PFA for 8–10 min at ambient temperature. Cells were rinsed three times with PBS and lysed with extraction buffer (PBS, 0.1% Triton X-100) for 3–5 min at ambient temperature. After another washing step with PBS, blocking buffer (PBS, 0.1% Triton, 5% FCS) was added for at least 10 min before incubating with monoclonal acetylated α-tubulin antibody (1:500, Sigma-Aldrich, catalogue no. T6793) in blocking buffer overnight at 4 °C. […] The cells were rinsed two times with blocking buffer and once with PBS and DAPI in mounting medium ([…] HardSet Antifade Mounting Medium with DAPI, no. H-1500-10) diluted 1:50 in PBS was added and it was incubated for 10 min in the dark. Confocal microscopy was performed with a Leica SP8 confocal microscope equipped with a 40×/1.40 oil objective (Leica Microsystems) keeping the laser settings of the images constant to allow direct comparison of signal intensities between images.

[4] = tested on: MCF-7 breast cancer cells; experiment: Cell viability assay (MTT) MCF-7; type: cell-based; settings: Homo sapiens, MCF7, 72 h
How it was run: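 HGC27 and PC-3M-luc cells (2000/well) were read by MTS after compound in 0.5% DMSO. W1 (10^4/well) and MCF-7 (2 × 10^3/well) were given half-log dilutions for 72 h, then MTT for 1 h, with absorbance at 570 nm minus 690 nm. Viability was fitted to a four-parameter logistic curve.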

[5] = biological target: T3, HDAC6 (Homo sapiens, UniProt Q9UBN7); experiment: HDAC6 in vitro deacetylation assay (ZMAL); type: biochemical; design: purchased BPS Bioscience 50006
T3 sequence (Q9UBN7 1-1215): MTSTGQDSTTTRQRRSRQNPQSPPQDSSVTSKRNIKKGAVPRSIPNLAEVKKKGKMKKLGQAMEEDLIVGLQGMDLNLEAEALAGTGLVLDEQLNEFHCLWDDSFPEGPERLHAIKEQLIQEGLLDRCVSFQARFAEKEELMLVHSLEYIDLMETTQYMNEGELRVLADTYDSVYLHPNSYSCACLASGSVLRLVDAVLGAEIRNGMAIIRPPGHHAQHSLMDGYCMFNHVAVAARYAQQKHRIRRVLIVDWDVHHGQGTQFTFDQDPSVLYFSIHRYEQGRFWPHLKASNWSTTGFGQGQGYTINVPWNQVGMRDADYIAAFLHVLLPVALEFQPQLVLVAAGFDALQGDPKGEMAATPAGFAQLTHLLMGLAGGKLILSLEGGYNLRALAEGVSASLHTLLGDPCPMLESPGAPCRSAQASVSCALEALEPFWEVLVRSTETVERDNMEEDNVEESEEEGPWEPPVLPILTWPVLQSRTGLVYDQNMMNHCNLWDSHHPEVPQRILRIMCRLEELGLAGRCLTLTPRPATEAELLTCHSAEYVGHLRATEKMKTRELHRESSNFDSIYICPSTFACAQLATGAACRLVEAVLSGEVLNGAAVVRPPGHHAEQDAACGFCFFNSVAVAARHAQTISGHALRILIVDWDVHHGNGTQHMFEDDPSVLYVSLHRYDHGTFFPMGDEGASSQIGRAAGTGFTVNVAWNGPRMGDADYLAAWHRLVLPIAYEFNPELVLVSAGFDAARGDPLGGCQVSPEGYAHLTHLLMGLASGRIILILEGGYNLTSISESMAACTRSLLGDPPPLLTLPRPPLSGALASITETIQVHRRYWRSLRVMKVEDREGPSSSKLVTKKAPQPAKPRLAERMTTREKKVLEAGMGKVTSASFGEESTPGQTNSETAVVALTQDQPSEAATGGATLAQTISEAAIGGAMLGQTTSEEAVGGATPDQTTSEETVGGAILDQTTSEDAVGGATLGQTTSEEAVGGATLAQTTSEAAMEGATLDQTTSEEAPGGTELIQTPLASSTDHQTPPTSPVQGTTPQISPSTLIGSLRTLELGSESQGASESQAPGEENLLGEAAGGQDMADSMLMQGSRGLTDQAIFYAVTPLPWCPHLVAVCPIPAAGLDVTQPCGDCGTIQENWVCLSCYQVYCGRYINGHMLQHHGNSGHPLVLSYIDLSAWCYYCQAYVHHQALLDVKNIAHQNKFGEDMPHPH

Row | inhibition at 20 µM [1] [%] | inhibition at 10 µM ([2]; @ 10 μM, read-out: HDAC1 percentual inhibition) [%] | inhibition at 10 µM ([5]; @ 10 μM, read-out: HDAC6 percentual inhibition) [%] | IC50 ([2]; deacetylation, mean ± SD) [nM] | EC50 ([4]; MTT, mean ± SD) [µM] | IC50 ([5]; deacetylation, mean ± SD) [nM] | SMILES | α-tubulin acetylation (immunofluorescence) [3] | inhibition at 100 µM ([4]; @ 0.1 mM, read-out: MCF-7 percentual inhibition) [%]
1 | < 15 | 10 | 18 |  |  |  | Cc1cc(C)nc(SCC(=O)Nc2ncc(Cc3cccc(OCc4cn(Cc5ccccc5)nn4)c3)s2)n1 [Compound 4, SirReal1.1, reference compound] | very minor | 3
2 | < 15 |  |  | 2200 ± 200 | 21.1 ± 6.7 | 43 ± 3 | CCCCN(Cc1ccc(C(=O)NO)cc1)C(=O)CCCCn1cc(COc2cccc(Cc3cnc(NC(=O)CSc4nc(C)cc(C)n4)s3)c2)nn1 [Compound 33, 4-((N-Butyl-5-(4-((3-((2-(2-((4,6-dimethylpyrimidin-2-yl)thio)acetamido)thiazol-5-yl)methyl)phenoxy)methyl)-1H-1,2,3-triazol-1-yl)pentanamido)methyl)-N-hydroxybenzamide] | the increase in tubulin hyperacetylation was especially pronounced | 
